Measurements reported in US7763626B2, “Compositions and method for enhancing the therapeutic activity of opiods in treatment of pain” (Trustees of Dartmouth College, priority 2004, dated 2010).

Columns and labels:
Assay type in all cases: in vivo, rat
Male Sprague-Dawley rats [1] = experiment: Hot water tail-flick test, morphine withdrawal-induced thermal hyperalgesia
Protocol: (§1) Male Sprague-Dawley rats (175-200 grams, Harlan, Indianapolis, Ind.) were divided into two groups (n=8 per group). Rats received subcutaneous injections of either saline or morphine (10 mg/kg; Sigma, St. Louis, Mo.) twice daily at 0800 to 0900 and 1600-1700 hour for 5 days in order to induce opioid tolerance. Chronic morphine withdrawal-induced hyperalgesia and allodynia were assessed in the animals 16 hours after the last injection of morphine. Following the recording of morphine withdrawal-induced hyperalgesia and allodynia, animals were treated with morphine (5 microgram) acutely via lumbar intrathecal injection to study the expression of morphine tolerance. Acute analgesic activity or intrathecal morphine in morphine-tolerant and chronic aline-treated rats were evaluated by mechanical (Analgesy-Meter) and thermal (tail-flick) test paradigms. Behaviors recorded prior to the acute administration of intrathecal morphine served as the basal latency measures.
(§2) With an understanding of the effects of morphine alone, separate groups of rats (n=8) received with saline or morphine (10 mg/kg subcutaneously, twice daily for 5 days) and also received once daily injections (at 1100 to 1200 hour) of propentofylline (1 and 10 micrograms) or saline via direct lumbar puncture during the induction of morphine tolerance. Again, chronic morphine withdrawal-induced hyperalgesia and allodynia were assessed in the animals 16 hours after the last subcutaneous morphine injection. Following the recording of morphine withdrawal-induced hyperalgesia and allodynia, animals were treated with morphine (5 micrograms) acutely via lumbar puncture to study the expression of morphine tolerance. As before, the acute analgesic activity of intrathecal morphine in morphine-tolerant and saline-injected rats was evaluated by mechanical (Analgesy-Meter) and thermal (tail-flick) test paradigms. Behavior recorded prior to the acute administration of intrathecal morphine served as the basal latency.
Thermal nociceptive thresholds were evaluated by the hot water tail-flick test that has been described previously (Bian, D. et al. 1999. Brain Res. 831:55-63). The test consisted of immersing the tail of the rats in water maintained at 49° C. and then recording the latency to a rapid flick. A 15 second cut-off time was used. Again, the total number of responses elicited during three successive trials separated by at least 10 minutes was recorded and then expressed as the % maximal possible effect. The tester was again blinded to the test groups.

Male Sprague-Dawley rats [2] = experiment: Paw pressure test (Analgesy-Meter), morphine withdrawal-induced mechanical hyperalgesia
Protocol: as §1, §2
(§3) In blinded testing, rats were subjected to sequential series of 10 tactile stimulations to the dorsal surface of the ipsilateral hindpaw using […] von Frey filaments (Stoelting Co., WoodDale, Ill.) sequentially. The number of foot withdrawals to this normally non-noxious stimulus determined mechanical allodynia. Mechanical sensitivity was assessed by recording the total number of responses elicited during three successive trials separated by at least 10 minutes. The pressure required to elicit paw withdrawal, the paw pressure threshold was determined.

Male Sprague-Dawley rats [3] = experiment: Mechanical allodynia (von Frey filaments), morphine withdrawal
Protocol: as §1, §2
Mechanical sensitivity was measured as the frequency of foot withdrawals elicited by a defined mechanical stimulus. Each rat, under unrestrained conditions, was placed beneath an inverted, ventilated Plexiglas cage upon an elevated aluminum screen surface with 1 cm mesh openings. Animals had been previously acclimated to the environment and the experimenter.
as §3

Male Sprague-Dawley rats [4] = experiment: Morphine tolerance model, acute intrathecal morphine evaluated by thermal and mechanical test paradigms; conditions: chronic subcutaneous morphine 10 mg/kg twice daily for 5 days; noxious thermal and mechanical testing paradigms
Protocol: as §1
as §2, with “Following the recording of morphine withdrawal-induced hyperalgesia and allodynia, animals were treated with morphine (5 micrograms) acutely via lumbar puncture to study the expression of morphine tolerance.” left out
as §3
Thermal nociceptive thresholds were evaluated by the hot water tail-flick test that has been described previously (Bian, D. et al. 1999. Brain Res. 831:55-63). […] Again, the total number of responses elicited during three successive trials separated by at least 10 minutes was recorded and then expressed as the % maximal possible effect. […]

Mac-1 mRNA = experiment: Real-time PCR of Mac-1 mRNA at L5 lumbar spinal cord; conditions: compared to saline-treated controls; morphine 10 mg/kg twice daily 5 days, or propentofylline 10 micrograms intrathecally 5 days in saline-treated rats
Protocol: (§4) Total RNA was treated with DNase I (Ambion, Austin, Tex.) to remove DNA contamination before cDNA synthesis. The reverse transcription (RT) was carried out in a 100 μl total reaction volume containing RT buffer, dNTPs, multiscribe reverse transcriptase, RNase-free water and 10 μg of DNase-treated total RNA. The RT reaction was carried out at 25° C. for 10 minutes, 37° C. for 120 minutes, and 95° C. for 5 minutes. Real-time PCR analysis was performed using gene-specific primers and probes that were designed and blasted against GENBANK to confirm their species and gene specificity. […] The real-time PCR reactions were carried out using Platinum Taq DNA polymerase, 20 mM Tris HCl (pH 8.4), 50 mM KCl, 3 mM MgCl2, 200 μM dGTP, dCTP, and dATP, 400 μM of dUTP and 1 U uracyl DNA glycosylase (UDG), 900 nM forward and reverse primers, 300 nM TaqMan probe, and 10-fold dilution of cDNA (50 ng) from the RT step. Primers and probes for glyceraldehyde-3-phosphate (GADPH), GFAP and Mac-1 were obtained form Applied Biosystems (LaJolla, Calif.). The relative standard curves generated by plotting the threshold value versus the log of the amount of total cDNA added to the reaction (1-10000 pg) were used to compare the relative amount of target genes from control and chronic morphine-treated animals.

GFAP mRNA = experiment: Real-time PCR of GFAP mRNA at L5 lumbar spinal cord; conditions: compared to saline-treated controls; morphine 10 mg/kg twice daily 5 days, or propentofylline 10 micrograms intrathecally 5 days in saline-treated rats
Protocol: as §4

IL-1β mRNA = experiment: RNase protection assay, cytokine mRNA at L5 lumbar spinal cord; conditions: ratio of expression compared with saline-treated animals (=1), propentofylline 10 μg intrathecally 5 days, morphine 10 mg/kg twice daily 5 days
Protocol: (§6) After behavioral testing for reactions to the combined treatment, rats were sacrificed and decapitated. An 18-gauge needle was inserted into the caudal end of the vertebral column and the spinal cord was expelled with ice-cold phosphate-buffered saline. The spinal cord was frozen immediately on dry ice and stored at −80° C. until homogenization. The L5 lumbar spinal cord was isolated from the intact frozen cord at the time of mRNA and protein quantification. Total RNA was isolated from the L5 spinal cord by the TRIzol extraction method (Invitrogen Corporation, Carlsbad, Calif).
(§7) Assessment of the temporal cytokine mRNA expression in the L5 lumber spinal cord was performed using a Ribonuclease Protection Assay technique. A Multiprobe RPAse kit was used (Pharmingen, San Diego, Calif.). Total RNA (15 μg) was hybridized to ^32P-labeled antisense RNA probes transcribed using the rat cytokine-1 (rCK-1) multiprobe template set resulting in double-stranded target RNA. After Rnase digestion, protected RNA and probe were resolved on a denaturing polyacrylamide gel and visualized by overnight autoradiography. Quantitative image analysis was employed to compare mRNA levels based on band intensities for each cytokine. The intensity of each band was measured using image analysis software and assigned an arbitrary unit based on the measured intensity levels. The value for the normalized quantity for each band was obtained by dividing by the L32 house-keeping gene control. Individual mRNA concentration was calculated as the ratio of the expression compared with saline-treated animals in which normal values were weighted as 1.

IL-6 mRNA = experiment: as above; conditions: ratio of expression compared with saline-treated animals (=1), propentofylline 10 μg intrathecally 5 days, morphine 10 mg/kg twice daily 5 days
Protocol: as §6, §7

IL-1β protein = experiment: Cytokine protein estimation by ELISA at L5 spinal cord; conditions: ELISA, propentofylline 10 μg intrathecally 5 days, morphine 10 mg/kg twice daily 5 days
Protocol: (§5) Quantitative determination of IL-1β, TNF-α and IL-6 protein was performed on the L5 spinal cord of the rats. […] Briefly, weighed sections of L5 spinal cord were homogenized in a homogenization buffer consisting of a protease inhibitor using the a Power Gen 125 tissue tearer (Fisher Scientific, Suwanee, Ga.). Samples were spun at 20,000×g for 30 minutes at 4° C. Supernatant was aliquoted and stored at −80° C. for future protein quantification. IL-1β and TNF-α (R&D Systems, Minneapolis, Minn.) and IL-6 (Biosource, Camarillo, Calif.) protein concentrations were determined utilizing the quantitative sandwich enzyme immunoassay.

IL-6 protein = experiment: as above; conditions: ELISA, propentofylline 10 μg intrathecally 5 days, morphine 10 mg/kg twice daily 5 days
Protocol: as §5

TNF-α protein = experiment: as above; conditions: ELISA, propentofylline 10 μg intrathecally 5 days, morphine 10 mg/kg twice daily 5 days
Protocol: as §5

[5] = 16 hours after last injection, morphine 10 mg/kg s.c. twice daily 5 days and/or propentofylline 10 micrograms intrathecally once daily 5 days
[6] = 16 hours after last morphine injection (10 mg/kg s.c. twice daily 5 days), propentofylline 1 and 10 micrograms intrathecally for 5 days during induction of tolerance

CN1CC[C@]23c4c5ccc(O)c4O[C@H]2[C@@H](O)C=C[C@H]3[C@H]1C5 [morphine]
Tail-flick latency (Male Sprague-Dawley rats [1]; [5]): 3.7 ± 0.2 s | morphine withdrawal-induced noxious thermal hyperalgesia (Male Sprague-Dawley rats [1]; [6]): led to withdrawal-induced thermal and mechanical hyperalgesia | Paw pressure latency (Male Sprague-Dawley rats [2]; [5]): 69.8 ± 4.8 grams | morphine withdrawal-induced mechanical hyperalgesia (Male Sprague-Dawley rats [2]; [6]): led to withdrawal-induced thermal and mechanical hyperalgesia | morphine withdrawal-induced mechanical allodynia (Male Sprague-Dawley rats [3]; [6]): led to withdrawal-induced thermal and mechanical hyperalgesia and mechanical allodynia | Mechanical allodynia (2 grams) (Male Sprague-Dawley rats [3]; number of foot withdrawals, 2 grams von Frey filament, morphine 10 mg/kg s.c. twice daily 5 days and/or propentofylline 10 micrograms intrathecally): 3.9 ± 0.5 | Mechanical allodynia (12 grams) (Male Sprague-Dawley rats [3]; number of foot withdrawals, 12 grams von Frey filament, morphine 10 mg/kg s.c. twice daily 5 days and/or propentofylline 10 micrograms intrathecally): 6.9 ± 0.7 | anti-nociceptive tolerance to acute intrathecal morphine (5 micrograms) (Male Sprague-Dawley rats [4]): demonstrated anti-nociceptive tolerance | Mac-1 mRNA levels at the L5 lumbar spinal cord (Mac-1 mRNA): significant increases | GFAP mRNA levels at the L5 lumbar spinal cord (GFAP mRNA): significant increases | IL-1β mRNA at the L5 lumbar spinal cord (IL-1β mRNA): significantly increased | IL-1β mRNA at the L5 lumbar spinal cord (IL-1β mRNA; listed as Morphine): 1.92 ± 0.14 | IL-6 mRNA at the L5 lumbar spinal cord (IL-6 mRNA): significantly increased | IL-6 mRNA at the L5 lumbar spinal cord (IL-6 mRNA; listed as Morphine): 1.85 ± 0.16 | IL-1β protein level at the L5 lumbar spinal cord (IL-1β protein): significantly increased | IL-1β protein level at the L5 lumbar spinal cord (IL-1β protein; listed as Morphine): 73.5 ± 9.2 | IL-6 protein level at the L5 lumbar spinal cord (IL-6 protein): significantly increased | IL-6 protein level at the L5 lumbar spinal cord (IL-6 protein; listed as Morphine): 359 ± 62.4 | TNF-α protein level at the L5 lumbar spinal cord (TNF-α protein): not significantly increased | TNF-α protein level at the L5 lumbar spinal cord (TNF-α protein; listed as Morphine): 36.6 ± 5.6
